Earlier results in patent US11241503B2, “Oxadiazole linkers and use thereof” (NewBio Therapeutics, Inc., priority 2017, dated 2022).

Test system: human carcinoma lines

## COc1cccc2c1C(=O)c1c(O)c3c(c(O)c1C2=O)C[C@@](O)(C(=O)CO)C[C@@H]3O[C@H]1C[C@H](N)[C@H](O)[C@H](C)O1 [doxorubicin, Doxorubicin]
  IC50: 100 to 200 nM
